Data from paper PMC7589200, “Identification of Putative Non-Substrate-Based XT-I Inhibitors by Natural Product Library Screening” (Biomolecules, 2020).
Read-outs that look alike come from different tables or passages of the source.

Key:
[1] = tested on: normal human dermal fibroblasts (NHDFs); assay: WST-1 cell proliferation assay; assay type: cell-based; settings: 48 h
Method: Normal human dermal fibroblasts (NHDFs) from a 37- and […] were obtained commercially from Cambrex (Walkerville, United States) and Coriell (New Jersey, United States). The NHDFs were cultured in phenol red-free Dulbecco’s modified Eagle’s medium (DMEM; Thermo Fisher Scientific, Waltham, Massachusetts, United States) supplemented with 10% (v/v) FCS, 4 mM L-glutamine and 100,000 U/L penicillin, 100 mg/L Streptomycin, 0.25 mg/L amphotericin B (PAN Biotech, Aidenbach, Germany) at 37 °C, 5% CO2. The medium was changed twice a week until the cells reached 80% confluency. The NHDFs were subcultured with an expansion ratio of 1:3 using 0.05% trypsin (PAN Biotech, Aidenbach, Germany) and used until the ninth passage.
The tetrazolium salt WST-1 (Roche, Basel, Swiss) was used for the spectrophotometric quantification of cell proliferation in response to various inhibitor concentrations. The cell proliferation assay was carried out according to the manufacturer’s instructions in a 96-well tissue culture plate with 1700 cells per cavity. Based on the inhibition studies, the cells were cultured in fully supplemented DMEM for 24 h then treated with celastrol or amphotericin B for an additional 48 h. The WST-1 reagent was added to the cell culture supernatant 4 h before the end of the treatment. The absorptions at 440 and 590 nm were measured at timepoints 0, 1, 2, 3 and 4 h after the addition of WST-1.

[2] = target: T1, XT-I (Homo sapiens, UniProt Q86Y38); assay: Enzyme and inhibition kinetics (mode of inhibition), UPLC/ESI-MS/MS XT-I assay; assay type: biochemical; settings: inhibitor at IC50 concentration; for Vmax: Figure 2, modified acceptor peptide varied, 15 μM UDP-D-xylose, Michaelis-Menten; for Vmax [AU]: Table S2, Michaelis-Menten plot, nonlinear regression
T1 sequence (Q86Y38 260-959 limits assumed): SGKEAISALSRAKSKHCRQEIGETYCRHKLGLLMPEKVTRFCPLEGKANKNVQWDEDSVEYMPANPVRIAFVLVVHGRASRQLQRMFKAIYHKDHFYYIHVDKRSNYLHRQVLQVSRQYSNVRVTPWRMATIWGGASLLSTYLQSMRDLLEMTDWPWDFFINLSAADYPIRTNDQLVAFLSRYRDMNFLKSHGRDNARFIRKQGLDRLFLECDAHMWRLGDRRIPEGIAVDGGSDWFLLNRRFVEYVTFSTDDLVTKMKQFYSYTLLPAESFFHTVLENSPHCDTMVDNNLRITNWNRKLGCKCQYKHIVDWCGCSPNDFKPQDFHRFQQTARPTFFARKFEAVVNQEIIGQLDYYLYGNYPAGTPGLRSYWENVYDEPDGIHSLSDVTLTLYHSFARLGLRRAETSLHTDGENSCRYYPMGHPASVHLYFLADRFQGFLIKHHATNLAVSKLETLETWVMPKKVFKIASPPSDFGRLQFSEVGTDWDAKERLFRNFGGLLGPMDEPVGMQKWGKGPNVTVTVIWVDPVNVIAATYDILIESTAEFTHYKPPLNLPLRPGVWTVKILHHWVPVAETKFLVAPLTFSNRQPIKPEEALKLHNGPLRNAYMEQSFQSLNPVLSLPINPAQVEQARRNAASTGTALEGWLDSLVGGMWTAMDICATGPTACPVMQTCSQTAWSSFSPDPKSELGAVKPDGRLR
Excerpt: The measurement of relative XT-I activity among different samples is based on the XT-catalyzed incorporation of xylose from UDP-D-xylose on a modified bikunin-derived peptide after a fixed reaction time. The assay was originally developed for the determination of XT activity in human- or cell-culture-derived samples [13] by ultra-performance liquid chromatography/electrospray ionization tandem mass spectrometry (UPLC/ESI-MS/MS). The UPLC/ESI-MS/MS XT assay was recently modified toward a XT-I selective activity determination in human serum and cell culture samples (unpublished data). The relative intensities of the xylosylated peptide species abundance obtained with the respective m/z ratio were directly proportional to the relative XT-I activity of the sample. The XT-I activity determined is expressed in arbitrary units and normalized to the total protein content per 1 mL sample volume in cell culture approaches. A calibrator probe with a fixed amount of recombinant XT-I enzyme was included in every UPLC-MS/MS XT-I assay for assay comparability across multiple runs. The assay reaction mixture (50 μL) contained 50% (v/v) of the respective XT-I enzyme solution and 50% (v/v) reaction buffer. The final XT-I assay contained 25 mM MES buffer (pH 6.5), 25 mM KF buffer, 5 mM MnCl2, 5 mM MgCl2, 7.0 μM modified acceptor peptide and 30 μM UDP-D-xylose. The sample preparation for UPLC/ESI-MS/MS was performed according to [13]. In brief, after sample incubation at 37 °C for 24 h, the reaction was stopped by heating at 99 °C for 10 min. After centrifugation (10,000× g, 10 min) the supernatant was diluted fivefold with UPLC water for analysis. All cell-based XT-I assays were carried out in three biological and three technical replicates per donor-derived primary cell culture, while the XT-I activity determination for screening or kinetic purposes was carried out at least in technical duplicates.
The mode of inhibition (MOI) study was performed by evaluating the inhibitors’ impact on the enzyme parameters’ Michaelis constant Km and the maximum activity Vmax. In order to determine the enzyme and inhibition kinetics, XT-I activity determination of the recombinant XT-I protein solution with and without inhibitor supplementation was carried out in the presence of different acceptor peptide concentrations ranging from 1 to 30 μM. […] The Km and Vmax were determined with the Michaelis–Menten equation and nonlinear regression analysis, while the slope and Y-intersection values were determined by a Lineweaver–Burk plot and simple linear regression using GraphPad Prism 8.0 (GraphPad Software, La Jolla, United States) software.

[3] = target: T1, XT-I; assay: IC50 determination, UPLC/ESI-MS/MS XT-I assay; assay type: biochemical
Excerpt: The measurement of relative XT-I activity among different samples is based on the XT-catalyzed incorporation of xylose from UDP-D-xylose on a modified bikunin-derived peptide after a fixed reaction time. The assay was originally developed for the determination of XT activity in human- or cell-culture-derived samples [13] by ultra-performance liquid chromatography/electrospray ionization tandem mass spectrometry (UPLC/ESI-MS/MS). The UPLC/ESI-MS/MS XT assay was recently modified toward a XT-I selective activity determination in human serum and cell culture samples (unpublished data). The relative intensities of the xylosylated peptide species abundance obtained with the respective m/z ratio were directly proportional to the relative XT-I activity of the sample. The XT-I activity determined is expressed in arbitrary units and normalized to the total protein content per 1 mL sample volume in cell culture approaches. A calibrator probe with a fixed amount of recombinant XT-I enzyme was included in every UPLC-MS/MS XT-I assay for assay comparability across multiple runs. […]
Inhibitor candidates from the NP compound library were screened using the UPLC/ESI-MS/MS XT-I assay with recombinant XT-I protein solution from pgsA-6HisXT1-K4 cells. […] The XT-I activity of the protein-inhibitor mixtures were determined by UPLC/ESI-MS/MS as described above. […]

Row | Compound | cell proliferation (WST-1) compared to control ([1]; 2.0 μM) | cell proliferation (WST-1) compared to control ([1]; 4.0 μM) | cell proliferation (WST-1) compared to control ([1]; 0.5 and 1.0 μM) | Vmax [2] | Vmax [AU] [2] [AU] | mode of inhibition (MOI) regarding the acceptor peptide [2] | IC50 [3] [µM] | cell proliferation (WST-1) compared to control ([1]; 0.5 to 2.0 μM) | IC50 ([3]; 15 μM UDP-D-xylose, 10.5 μM acceptor peptide, 1 h preincubation at RT, read-out: IC50) [µM]
1 | CC1=C(O)C(=O)C=C2C1=CC=C1[C@@]2(C)CC[C@@]2(C)[C@@H]3C[C@](C)(C(=O)O)CC[C@]3(C)CC[C@]12C [Compound 68, Celastrol] | significantly decreased cell proliferation | significantly decreased cell proliferation | did not influence cellular proliferation | 12 ± 0.6 ·10^3 AU | 11826 ± 551 | competitive | 11 ± 1 | – | –
2 | C[C@@H]1[C@H](O)[C@@H](C)/C=C/C=C/C=C/C=C/C=C/C=C/C=C/[C@H](O[C@@H]2O[C@H](C)[C@@H](O)[C@H](N)[C@@H]2O)C[C@@H]2O[C@](O)(C[C@@H](O)C[C@@H](O)[C@H](O)CC[C@@H](O)C[C@@H](O)CC(=O)O[C@H]1C)C[C@H](O)[C@H]2C(=O)O [Compound 17, Amphotericin B] | – | reduced the proliferation of NHDFs significantly | – | 10 ± 0.4 ·10^3 AU | 10031 ± 388 | uncompetitive | – | did not influence cellular proliferation | 12.2 ± 1
